Legend:
dwf5-1 plants = assay: biochemical complementation of dwf5-1 plants with brassinolide and its biosynthetic intermediates (pedicel length); type: in vivo, Arabidopsis; settings: for dwf5 pedicel length compared to a water-treated control: exogenous application, pedicel length measured 7 days after application (n=15), FIG. 2
Protocol: Standard procedures for plant growth, measurements on floral organs, scoring the number of seeds in a silique, biochemical complementation tests with Brassinosteroids, analysis of endogenous Brassinosteroids, and 13C-labeled mevalonic acid feeding experiments have been described previously (Choe, et al., 1999b). […] The ability of Brassinosteroids to rescue the phenotype of dwf5 was tested. The data presented in FIG. 2 show the biochemical complementation of dwf5-1 plants with brassinolide (BL) and its biosynthetic intermediates. […] The length of pedicels was measured 7 days after application (n=15). Data points represent the average with one standard deviation. Further, the BR biosynthetic intermediate 6-deoxocathasterone (6-DeoxoCT), and the synthetic compound 22-hydroxycampesterol (22-OHCR) induced pedicel growth up to 80% of wild-type length.

dwf5-1 seeds = assay: seed germination on agar-solidified Murashige and Skoog media; type: in vivo, Arabidopsis; settings: germination media supplemented with 10^−7 M brassinolide; without it <60% of dwf5-1 seeds germinated vs >90% of wild type
From the text: The reduced germination of dwf5 seeds may be a secondary effect of retarded growth, or possibly DWF5 is involved in seed development and/or germination.

| SMILES | rescue of the length of dwf5 pedicels to that of wild type (dwf5-1 plants; BL application) | dwf5 pedicel length compared to a water-treated control (dwf5-1 plants) | correction of reduced germination of dwf5 seeds (dwf5-1 seeds) |
| --- | --- | --- | --- |
| CC(C)[C@H](C)[C@@H](O)[C@H](O)[C@@H](C)[C@H]1CC[C@H]2[C@@H]3COC(=O)[C@H]4C[C@H](O)[C@H](O)C[C@]4(C)[C@H]3CC[C@]12C [brassinolide] | completely rescued | significant increases | partially corrected |
| CC(C)[C@H](C)C[C@H](O)[C@@H](C)[C@H]1CC[C@H]2[C@@H]3CC=C4C[C@@H](O)CC[C@]4(C)[C@H]3CC[C@]12C [22-hydroxycampesterol] |  | significant increases |  |
| CC(C)[C@H](C)C[C@H](O)[C@@H](C)[C@H]1CC[C@H]2[C@@H]3CC[C@H]4C[C@@H](O)CC[C@]4(C)[C@H]3CC[C@]12C [6-deoxocathasterone] |  | significant increases |  |

Source: patent US20020120111A1, “Dwf5 mutants” (priority 2000, published 2002)
